According to patent publication US20130116227A1, “BIARYL AMIDE DERIVATIVE OR PHARMACEUTICALLY ACCEPTABLE SALT THEREOF” (DAINIPPON SUMITOMO PHARMA CO., LTD., priority 2010, published 2013):

target: T1, aldosterone receptor (Rattus norvegicus, UniProt P22199); test: Binding inhibition test for aldosterone receptor ([3H]aldosterone, rat renal soluble fraction); details: [3H]aldosterone 2 nM, rat renal soluble fraction, in the presence of 2 μM RU-486, 4° C. about 18 hours; read-out: MR IC50
T1 construct: centrifuged at 105,000 g for 30 minutes, and then a supernatant was collected as a renal soluble fraction; from tissue; host or cells: rat kidney (adrenalectomized rat), 105,000 g supernatant (cytosol)
T1 sequence (P22199 1-981): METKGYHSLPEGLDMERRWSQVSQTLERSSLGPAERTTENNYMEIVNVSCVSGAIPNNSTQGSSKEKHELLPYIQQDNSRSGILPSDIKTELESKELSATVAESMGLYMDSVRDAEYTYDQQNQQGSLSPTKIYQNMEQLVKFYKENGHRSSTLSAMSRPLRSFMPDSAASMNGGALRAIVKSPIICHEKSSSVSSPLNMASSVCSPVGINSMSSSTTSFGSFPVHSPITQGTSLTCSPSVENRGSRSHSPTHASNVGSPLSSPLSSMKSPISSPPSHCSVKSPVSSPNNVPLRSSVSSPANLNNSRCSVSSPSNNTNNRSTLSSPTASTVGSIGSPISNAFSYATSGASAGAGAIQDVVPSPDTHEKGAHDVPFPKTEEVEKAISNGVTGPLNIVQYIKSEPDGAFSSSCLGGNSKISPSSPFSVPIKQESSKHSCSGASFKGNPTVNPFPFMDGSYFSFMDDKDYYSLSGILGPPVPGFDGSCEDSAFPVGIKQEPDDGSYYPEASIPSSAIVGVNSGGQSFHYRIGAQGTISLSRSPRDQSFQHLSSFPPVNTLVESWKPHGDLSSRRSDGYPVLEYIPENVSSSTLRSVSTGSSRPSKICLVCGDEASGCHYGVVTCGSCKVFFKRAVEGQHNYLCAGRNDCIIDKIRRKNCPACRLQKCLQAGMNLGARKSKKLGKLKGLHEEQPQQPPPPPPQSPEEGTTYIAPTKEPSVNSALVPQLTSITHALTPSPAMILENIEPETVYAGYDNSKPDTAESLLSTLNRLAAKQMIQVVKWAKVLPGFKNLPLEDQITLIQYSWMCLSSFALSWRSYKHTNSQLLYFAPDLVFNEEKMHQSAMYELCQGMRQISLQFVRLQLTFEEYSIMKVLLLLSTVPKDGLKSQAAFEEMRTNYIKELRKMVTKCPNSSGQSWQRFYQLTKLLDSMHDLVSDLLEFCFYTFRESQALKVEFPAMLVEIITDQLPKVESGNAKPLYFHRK
Protocol: Binding Inhibition Test for Aldosterone Receptor
A rat was layed open in flank regions (on both sides) to remove both adrenal glands. After stitching up the incision, the rat was returnd to a breeding cage again. After removing the kidney from the rat reared for about 3 to 5 days, the kidney was homogenized in 0.1 M Tris-HCl, 0.25M sucrose, 0.1M Na2MoO4 and 2 mM DTT buffer solution (pH7.4). The resultant was centrifuged at 105,000 g for 30 minutes, and then a supernatant was collected as a renal soluble fraction.
The rat renal soluble fraction (0.5 to 1.5 mg), a labeled ligand [^3H] aldosterone (2 nM) and a test article were reacted in the presence of 2 μM RU-486 (glucocorticoid receptor antagonist) in 100 μL of total amounts at 4° C. for about 18 hours. Afterwards, to the reaction solution was added 50 μL of 5% dextran-coated activated charcoal, and the mixture was immingled, and then centrifuged at 3,000 g for 5 minutes. Then, a supernatant (100 μL) was collected and mixed with a liquid scintillator ACS-II (Amersham) (3.5 mL), and then analyzed its radioactivity by a liquid scintillation counter (manufactured by Packard, Tri Carb 2700TR). A non-specific binding was obtained by addition of 2 μM aldosterone to a reaction solution. […]
Binding inhibition rate (%)=100−{(B−N)/(B0−N)}×100
B: labeled ligand binding amounts in the presence of a test article and a labeled ligand
B0: labeled ligand binding amounts in the absence of a test article
N: labeled ligand binding amounts in the presence of excess aldosterone (2 μM)
Test example 1 was carried out for compounds obtained in the Examples.

| Compound | IC50 |
| --- | --- |
| COc1cc(C(=O)Nc2ccc(-c3ccccc3N3CCCCC3)c(C)c2)ccc1S(N)(=O)=O [Example 342] | 470 nM |
| COc1cc(C(=O)Nc2ccc(-c3ccccc3N3C[C@@H](C)O[C@@H](C)C3)c(C)c2)ccc1S(N)(=O)=O [Example 345] | 140 nM |
| COc1cc(C(=O)Nc2ccc(-c3ccccc3NC3CCCC3)c(C)c2)ccc1S(N)(=O)=O [Example 346] | 1100 nM |
| COc1cc(C(=O)Nc2ccc(-c3ccccc3NC(C)C)c(C)c2)ccc1S(N)(=O)=O [Example 351] | 1200 nM |
| CCC(CC)NCc1cc(NC(=O)c2ccc(S(N)(=O)=O)c(OC)c2)ccc1-c1ccccc1C(F)(F)F [Example 355] | 1000 nM |
| COCCNCc1cc(NC(=O)c2ccc(S(N)(=O)=O)c(OC)c2)ccc1-c1ccccc1C(F)(F)F [Example 357] | 130 nM |
| COc1cc(C(=O)Nc2ccc(-c3ccccc3C(F)(F)F)c(CC#N)c2)ccc1S(N)(=O)=O [Example 363] | 750 nM |
| COCCNCc1cc(NC(=O)c2ccc(S(N)(=O)=O)c(OC)c2)ccc1-c1ccccc1OC(F)(F)F [Example 364] | 540 nM |
| CCC(CC)NCc1cc(NC(=O)c2ccc(S(N)(=O)=O)c(OC)c2)ccc1-c1ccccc1OC(F)(F)F [Example 365] | 460 nM |
| COc1cc(C(=O)Nc2ccc(-c3ccccc3C(F)(F)F)c(CN3CC(C)OC(C)C3)c2)ccc1S(N)(=O)=O (stereo not drawn) [Example 371] | 450 nM |
| CCOCc1cc(NC(=O)c2ccc(S(N)(=O)=O)c(OC)c2)ccc1-c1ccccc1C(F)(F)F [Example 373] | 100 nM |
| COc1cc(C(=O)Nc2ccc(-c3ccccc3C(F)(F)F)c(CN3CC[C@H](F)C3)c2)ccc1S(N)(=O)=O [Example 376] | 380 nM |
| COc1cc(C(=O)Nc2ccc(-c3ccccc3C(F)(F)F)c(CN3CC(F)(F)C3)c2)ccc1S(N)(=O)=O [Example 385] | 630 nM |
| COc1cc(C(=O)Nc2ccc(-c3ccccc3C(F)(F)F)c(CN3CCSCC3)c2)ccc1S(N)(=O)=O [Example 387] | 360 nM |
| COc1cc(C(=O)Nc2ccc(-c3ccccc3C(F)(F)F)c(CNCC(F)F)c2)ccc1S(N)(=O)=O [Example 389] | 560 nM |
| COc1cc(C(=O)Nc2ccc(-c3ccccc3C(F)(F)F)c(CN3CCC(F)CC3)c2)ccc1S(N)(=O)=O [Example 392] | 450 nM |
| COc1cc(C(=O)Nc2ccc(-c3ccccc3C(F)(F)F)c(CN3CCC4(CC3)OCCO4)c2)ccc1S(N)(=O)=O [Example 393] | 520 nM |
| COc1cc(C(=O)Nc2ccc(-c3ccccc3C(F)(F)F)c(CN3CCC4(C3)OCCO4)c2)ccc1S(N)(=O)=O [Example 395] | 190 nM |
| COc1cc(C(=O)Nc2ccc(-c3ccccc3C(F)(F)F)c(CNC3CC3)c2)ccc1S(N)(=O)=O [Example 403] | 630 nM |
| COc1cc(C(=O)Nc2ccc(-c3ccccc3C(F)(F)F)c(Cn3cccn3)c2)ccc1S(N)(=O)=O [Example 405] | 210 nM |
| COc1cc(C(=O)Nc2ccc(-c3ccccc3C(F)(F)F)c(Cn3nccn3)c2)ccc1S(N)(=O)=O [Example 407] | 260 nM |
| COc1cc(C(=O)Nc2ccc(-c3ccccc3C(F)(F)F)c(COC3CCOCC3)c2)ccc1S(N)(=O)=O [Example 410] | 520 nM |
| COc1cc(NC(=O)c2ccc(-c3ccc(F)cc3F)c(CNCC(F)F)c2)ccc1S(N)(=O)=O [Example 414] | 1700 nM |
| COc1cc(NC(=O)c2ccc(-c3ccccc3C)c(CNCC(F)F)c2)ccc1S(N)(=O)=O [Example 415] | 630 nM |
| COc1cc(NC(=O)c2ccc(-c3ccccc3F)c(CNCC(F)F)c2)ccc1S(N)(=O)=O [Example 419] | 1200 nM |
| COc1cc(NC(=O)c2ccc(-c3ccc(F)cc3Cl)c(CNCC(F)F)c2)ccc1S(N)(=O)=O [Example 426] | 580 nM |

| Compound | IC50 |
| --- | --- |
| COc1cc(NC(=O)c2ccc(-c3ccccc3CC(F)(F)F)c(CNCC(F)F)c2)ccc1S(N)(=O)=O [Example 438] | < 10000 nM |
| COc1cc(NC(=O)c2ccc(-c3ccc(C)cc3C(F)(F)F)c(CNCC(F)F)c2)ccc1S(N)(=O)=O [Example 440] | < 10000 nM |
| COc1cc(NC(=O)c2ccc(-c3cc(C)ccc3C(F)(F)F)c(CNCC(F)F)c2)ccc1S(N)(=O)=O [Example 443] | < 10000 nM |
| COc1cc(NC(=O)c2ccc(-c3ccccc3C3CC3)c(CNCC(F)F)c2)ccc1S(N)(=O)=O [Example 448] | < 10000 nM |
| COc1cc(NC(=O)c2ccc(-c3ccccc3Cl)c(CNCC(F)F)c2)ccc1S(N)(=O)=O [Example 451] | 550 nM |
| COc1cc(NC(=O)c2ccc(-c3cccc(Cl)c3Cl)c(CNCC(F)F)c2)ccc1S(N)(=O)=O [Example 454] | < 10000 nM |
| COc1cc(NC(=O)c2ccc(-c3cc(F)ccc3Cl)c(CNCC(F)F)c2)ccc1S(N)(=O)=O [Example 457] | < 10000 nM |
| COc1cc(NC(=O)c2ccc(-c3ccc(C(F)(F)F)cc3Cl)c(CNCC(F)F)c2)ccc1S(N)(=O)=O [Example 460] | < 10000 nM |
| CCOc1ncccc1-c1ccc(C(=O)Nc2ccc(S(N)(=O)=O)c(OC)c2)cc1CNCC(F)F [Example 463] | < 10000 nM |
| COc1cc(NC(=O)c2ccc(-c3ccccc3C(C)(F)F)c(CNCC(F)F)c2)ccc1S(N)(=O)=O [Example 469] | < 10000 nM |
| COc1cc(NC(=O)c2ccc(-c3ccc(F)cc3C3CC3)c(CNCC(F)F)c2)ccc1S(N)(=O)=O [Example 470] | < 10000 nM |
| COc1cc(NC(=O)c2ccc(-c3ccc(Cl)cc3C(F)(F)F)c(CNCC(F)F)c2)ccc1S(N)(=O)=O [Example 474] | < 10000 nM |
| COc1cc(NC(=O)c2ccc(-c3ccccc3OC(F)(F)C(F)F)c(CNCC(F)F)c2)ccc1S(N)(=O)=O [Example 478] | < 10000 nM |
| CCCOc1ncccc1-c1ccc(C(=O)Nc2ccc(S(N)(=O)=O)c(OC)c2)cc1CNCC(F)F [Example 481] | < 10000 nM |
| COc1cc(NC(=O)c2ccc(-c3ccc(F)cc3C(F)(F)F)c(CNCC(F)F)c2)ccc1S(N)(=O)=O [Example 486] | < 10000 nM |
| COc1cc(C(=O)Nc2ccc(-c3ccccc3Cl)c(CNCC(F)F)c2)ccc1S(N)(=O)=O [Example 488] | < 10000 nM |
| COc1cc(C(=O)Nc2ccc(-c3ccccc3OC(F)(F)F)c(C)c2)ccc1S(N)(=O)=O [Example 499] | 1200 nM |
| CCCN(Cc1cc(C(=O)Nc2ccc(S(C)(=O)=O)cc2)ccc1-c1ccccc1OC(F)(F)F)CC1CC1 [Example 500] | 190 nM |
| CCCN(CCC)Cc1cc(C(=O)Nc2ccc(S(C)(=O)=O)cc2)ccc1-c1ccccc1OC(F)(F)F [Example 505] | 290 nM |
| CS(=O)(=O)c1ccc(NC(=O)c2ccc(-c3ccccc3OC(F)(F)F)c(CN3CCC3)c2)cc1 [Example 508] | < 10000 nM |
| CS(=O)(=O)c1ccc(NC(=O)c2ccc(-c3ccccc3OC(F)(F)F)c(CN3CC[C@@H](F)C3)c2)cc1 [Example 510] | 280 nM |
| CS(=O)(=O)c1ccc(NC(=O)c2ccc(-c3ccccc3OC(F)(F)F)c(CNC3CC3)c2)cc1 [Example 513] | 700 nM |
| Cn1nccc1CNCc1cc(C(=O)Nc2ccc(S(C)(=O)=O)cc2)ccc1-c1ccccc1OC(F)(F)F [Example 520] | 2900 nM |
| CS(=O)(=O)c1ccc(NC(=O)c2ccc(-c3ccccc3OC(F)(F)F)c(CNc3ncccn3)c2)cc1 [Example 526] | 2200 nM |
| COc1cc(C(=O)Nc2ccc(-c3ccccc3C(F)(F)F)c(CNCC(F)(F)F)c2)ccc1S(N)(=O)=O [Example 528] | < 10000 nM |
